Source: publication PMC10110893, “[…]-derived synthetic cannabinoids inhibit T-type calcium channels with divergent effects on seizures in rodent models of epilepsy” (Frontiers in Physiology, 2023)
Read-outs that look alike come from different tables or passages of the source.

Assays:
human Cav3.2 = biological target: T1, human Cav3.2 (Homo sapiens, UniProt O95180); experiment: FLIPR calcium flux assay, Cav3.2; format: cell-based
T1 construct: expressed in transfected cells; host or cells: HEK293 FlpIn T-Rex cells (Invitrogen)
Protocol: HEK293 FlpIn T-Rex cells (Invitrogen, CA, United States) stably expressing human Cav3.1, Cav3.2, or Cav3.3 were maintained in Dulbecco’s Modified Eagle Medium (DMEM) supplemented with 10% foetal bovine serum (FBS), 1% penicillin-streptomycin (P/S) at 37°C, and 5% CO2 as previously described ([Bladen et al., 2021]; [Udoh et al., 2022]). Hygromycin (80 μg/mL) and blasticidin (15 μg/mL) were used as selection antibiotics and cells were passaged at 80% confluency. For experiments, cells were resuspended in Leibovitz’s L-15 media (containing 1% FBS, 1% P/S, 15 mM glucose, 2 μg/mL tetracycline), plated in black, clear-bottomed poly-D-lysine-coated 96-well plates (90 μL) (Corning, NY, United States), and incubated overnight in ambient air at 37°C. All compounds tested in cellular assays were prepared as stock solutions in DMSO and final DMSO concentration was 0.1%.
Intracellular calcium flux was measured using a fluorometric imaging plate-reader (FLIPR) Calcium 5 Assay Kit and FlexStation 3 Microplate Reader (Molecular Devices, San Jose, United States). […]
Fluorescence readings were taken at 2 s intervals (λ excitation = 485 nm, λ emission = 525 nm). […] Baseline fluorescence averaged over the 20 s interval preceding CaCl2 addition was subtracted and normalized to the vehicle response. Changes in fluorescence were measured in relative fluorescence units (RFU). […]

[1] = tested on: cannabinoid CB1 receptors; design: method as in Kevin et al., 2022; conditions: ref Kevin et al., 2022; cited from earlier work
[2] = Aqueous solubility (dosing observation); format: physicochemical; conditions: prevented assessment at doses above 100 mg/kg
Protocol: (§1) SB2193 and SB2193F were prepared in ethanol-Tween 80%–0.9% saline (1:1:18 ratio) and valproic acid in 0.9% saline. All doses were completely soluble in this vehicle except for the 100 mg/kg SB2193 dose, which was a suspension.

T-type channels = tested on: T-type channels; design: method as in Kevin et al., 2022; conditions: single 10 μM concentration, FLIPR calcium flux and whole-cell patch clamp, ref Kevin et al., 2022; cited from earlier work
[3] = Pharmacokinetics in mouse plasma and brain after single i.p. injection; format: in vivo; conditions: both sexes, 10 mg/kg i.p.; for AUC: wildtype F1, mouse, in vivo, 10 mg/kg
Protocol: as §1
Male and female wildtype F1 mice aged 21–28 days postnatal received a single i. p. injection of 10 mg/kg SB2193 or SB2193F. At selected timepoints (15–240 min), mice were anesthetised with isoflurane, blood was collected via cardiac puncture and whole brains were harvested. Brains were snap frozen on dry ice, and blood plasma was isolated via centrifugation (4,000 g for 10 min, 4^○C). Brain and plasma samples were stored at −80°C until assayed.
Plasma samples (50 μL) were spiked with an internal standard (diazepam) and vortexed with 1 M NaOH (50 μL) and methyl tert-butyl ether (1 mL) to achieve protein precipitation. The organic layer was isolated by centrifugation (4,000 g for 3 min) before being frozen for 60 min at −80°C, evaporated to dryness using N2, and reconstituted in 30% acetonitrile and 0.1% formic acid in water for analysis. Brain hemispheres were homogenised in a 10x w/v 1:1 methanol-water solution using a Biospec Tissue-Tearor (Bartlesville, United States) and centrifuged at 20,000 g for 30 min at 4°C. Supernatant (100 μL) was collected and prepared following the same method as plasma.
SB2193 and SB2193F concentrations in brain and plasma samples were assessed by high performance liquid chromatography-tandem mass spectrometry (HPLC-MS/MS) using a Shimadzu Nexera liquid chromatograph coupled with a Shimadzu 8,030 triple quadrupole mass spectrometer (Kyoto, Japan). Samples were run through a Zorbax C18 HPLC Column equipped with a Zorbax Eclipse XDB-C8 guard column (2.1 × 50 mm, 3.5 μm particle size; Agilent, Santa Clara, United States) with an injection volume of 10 μL using a gradient elution. Mobile phases of acetonitrile and 0.1% formic acid in water were delivered at a flow rate of 0.6 mL/min over 4.16 min, with a stepwise adjustment of mobile phase concentration gradient over time to optimise ion separation.
Quantification was achieved by comparing experimental samples to plasma and brain standards prepared with known concentrations of SB2193 or SB2193F. Samples were quantified against a 7-point standard curve (R ^2 > 0.98 for both analytes).
Concentrations of SB2193 or SB2193F in plasma and brain at each timepoint were averaged and concentration-time curves were generated using GraphPad Prism. Pharmacokinetic parameters were calculated using non-compartmental analysis. The linear-log trapezoidal method was used to calculate drug exposure (area under the curve, AUC) using equations previously described ([Hawkins et al., 2017]).

[4] = tested on: Scn1a +/- mouse model of Dravet syndrome; experiment: Spontaneous seizures and survival monitoring in Scn1a+/- mice; format: in vivo
Protocol: Scn1a ^ +/− mice purchased from The Jackson Laboratory (stock 37107-JAX; Bar Harbour, United States) were maintained as a congenic line on a 129S6/SvEvTac background (129. Scn1a ^+/−). F1 mice were generated by crossing 129. Scn1a ^+/− mice with wild-type C57BL/6J mice (Jackson Laboratory stock no. 000664) and group housed. Scn1a genotype was determined as previously described ([Miller et al., 2014]).
On P18, male and female Scn1a ^ +/− mice were weaned and randomly assigned to treatment groups (untreated or SB2193) with n = 17–19 per group. For spontaneous seizure and survival experiments, SB2193 was administered sub-chronically via supplementation of the compound into chow to avoid stress associated with repeated i.p. injections. Chow was formulated at 5,000 mg/kg SB2193 in chow to provide target brain concentrations of 0.73 μM, with the daily oral dose based on the assumption that each mouse consumes approximately 3 g chow/day. Bodyweight of mice was monitored during the administration period to ensure consumption of chow. Animals in both treatment groups gained weight at an equivalent rate over the chow supplementation period (Supplementary Figure S1).
Continuous video recordings from 00:00 P23 to 24:00 P24 were made using a Samsung SCB-5003 days/night camera equipped with an infrared lens (Seoul, South Korea). The number of spontaneous generalised tonic-clonic seizures (GTCS) occurring over the 48 h recording period was quantified offline by a blinded observer. Statistical comparison was performed in GraphPad Prism using a Mann-Whitney U test as data were non-parametric. Treatment was continued to P30 to monitor survival of mice. Scn1a ^ +/− mice have a high premature mortality rate, with approximately 50% of animals surviving to P30 ([Miller et al., 2014]). We have observed substantial variability in the mortality rate across experimental cohorts which is difficult to explain and likely due to stochastic factors ([Anderson et al., 2020]; [Anderson et al., 2021]; [Anderson et al., 2022]). […]

[5] = wildtype F1, in vivo, ip, mouse plasma

T1 sequence (O95180 whole entry): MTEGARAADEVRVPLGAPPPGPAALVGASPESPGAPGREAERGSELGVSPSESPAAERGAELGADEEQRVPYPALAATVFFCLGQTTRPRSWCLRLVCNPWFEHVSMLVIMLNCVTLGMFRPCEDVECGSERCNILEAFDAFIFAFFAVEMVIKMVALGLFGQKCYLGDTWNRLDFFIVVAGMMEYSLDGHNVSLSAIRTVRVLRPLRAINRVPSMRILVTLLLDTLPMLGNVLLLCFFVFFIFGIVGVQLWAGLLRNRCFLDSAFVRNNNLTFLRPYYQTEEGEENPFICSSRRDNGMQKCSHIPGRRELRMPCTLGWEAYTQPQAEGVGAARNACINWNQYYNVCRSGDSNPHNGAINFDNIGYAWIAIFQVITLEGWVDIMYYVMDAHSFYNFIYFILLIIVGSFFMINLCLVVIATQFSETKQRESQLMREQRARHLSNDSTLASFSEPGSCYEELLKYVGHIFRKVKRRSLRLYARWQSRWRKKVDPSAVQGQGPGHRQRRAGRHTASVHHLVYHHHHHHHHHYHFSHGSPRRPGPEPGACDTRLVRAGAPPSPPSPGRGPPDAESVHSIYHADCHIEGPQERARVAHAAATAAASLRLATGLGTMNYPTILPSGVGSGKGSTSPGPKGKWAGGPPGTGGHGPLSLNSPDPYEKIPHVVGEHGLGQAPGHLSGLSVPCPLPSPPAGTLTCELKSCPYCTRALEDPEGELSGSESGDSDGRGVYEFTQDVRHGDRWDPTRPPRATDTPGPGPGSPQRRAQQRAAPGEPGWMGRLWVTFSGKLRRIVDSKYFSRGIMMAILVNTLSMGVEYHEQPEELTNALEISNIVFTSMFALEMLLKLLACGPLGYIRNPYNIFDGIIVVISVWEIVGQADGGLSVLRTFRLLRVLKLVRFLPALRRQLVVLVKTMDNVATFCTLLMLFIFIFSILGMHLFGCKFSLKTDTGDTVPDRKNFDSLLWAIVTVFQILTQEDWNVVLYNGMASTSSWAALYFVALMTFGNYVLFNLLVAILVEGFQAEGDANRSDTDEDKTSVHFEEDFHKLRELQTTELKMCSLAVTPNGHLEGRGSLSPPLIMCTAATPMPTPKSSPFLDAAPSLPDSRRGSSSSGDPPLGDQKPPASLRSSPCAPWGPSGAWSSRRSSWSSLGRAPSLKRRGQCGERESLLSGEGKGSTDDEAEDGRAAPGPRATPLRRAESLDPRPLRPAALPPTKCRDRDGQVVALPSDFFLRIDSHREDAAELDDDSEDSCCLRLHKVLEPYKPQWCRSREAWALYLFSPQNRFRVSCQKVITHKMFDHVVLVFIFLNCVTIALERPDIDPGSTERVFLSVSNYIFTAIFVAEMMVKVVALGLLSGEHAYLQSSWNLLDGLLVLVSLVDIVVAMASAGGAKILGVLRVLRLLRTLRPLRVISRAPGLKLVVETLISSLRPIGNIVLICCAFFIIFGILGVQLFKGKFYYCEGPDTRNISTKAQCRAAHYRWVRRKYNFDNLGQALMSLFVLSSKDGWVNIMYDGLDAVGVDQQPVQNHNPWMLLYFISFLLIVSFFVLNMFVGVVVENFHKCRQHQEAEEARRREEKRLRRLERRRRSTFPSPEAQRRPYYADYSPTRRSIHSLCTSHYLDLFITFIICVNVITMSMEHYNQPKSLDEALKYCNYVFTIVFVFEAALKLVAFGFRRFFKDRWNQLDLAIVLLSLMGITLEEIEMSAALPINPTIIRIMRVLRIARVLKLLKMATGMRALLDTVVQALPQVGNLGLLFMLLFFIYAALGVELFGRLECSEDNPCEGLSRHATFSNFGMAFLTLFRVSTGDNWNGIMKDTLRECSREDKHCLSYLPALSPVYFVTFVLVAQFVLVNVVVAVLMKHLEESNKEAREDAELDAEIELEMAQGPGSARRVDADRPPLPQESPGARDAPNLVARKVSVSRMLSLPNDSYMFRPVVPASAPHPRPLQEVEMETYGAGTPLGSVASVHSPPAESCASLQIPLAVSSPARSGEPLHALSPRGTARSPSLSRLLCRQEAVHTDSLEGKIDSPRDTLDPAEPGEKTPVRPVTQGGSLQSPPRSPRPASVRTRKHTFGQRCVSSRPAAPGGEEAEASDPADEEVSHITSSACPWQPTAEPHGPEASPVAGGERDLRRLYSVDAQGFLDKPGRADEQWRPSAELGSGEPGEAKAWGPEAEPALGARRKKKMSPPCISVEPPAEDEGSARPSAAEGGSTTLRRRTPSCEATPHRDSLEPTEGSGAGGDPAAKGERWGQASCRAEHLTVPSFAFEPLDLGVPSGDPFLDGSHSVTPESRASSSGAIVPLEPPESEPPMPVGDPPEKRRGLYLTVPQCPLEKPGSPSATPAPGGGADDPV

## CCCCCn1cc(C(=O)N2CCN(C(=O)OC(C)(C)C)CC2)c2ccccc21 [SB2193]
Human Cav3.2
  IC50: 5.9 µM
[1]
  activity at cannabinoid CB1 receptors: minimal activity
[2]
  aqueous solubility: poor aqueous solubility
T-type channels
  inhibition of T-type channels: strongly inhibit
[3]; [5]
  Tmax: ≤ 15 min
  half-life: 29 min
[3]; wildtype F1, in vivo, ip, mouse plasma, read-out: Cmax
  Cmax: 750 ± 50 nM
[3]; wildtype F1, in vivo, ip, mouse plasma, read-out: Cmax (μg/mL)
  Cmax: 0.3 ± 0.02 µg/mL
[3]; wildtype F1, in vivo, ip, mouse, read-out: brain-plasma ratio
  Kp: 2.7
[3]; wildtype F1, ip, mouse brain
  Tmax: ≤ 15 min
  half-life: 28 min
[3]; wildtype F1, ip, mouse brain, read-out: Cmax
  Cmax: 3000 ± 1000 nM
[3]; wildtype F1, ip, mouse brain, read-out: Cmax (μg/mL)
  Cmax: 1.2 ± 0.4 µg/mL
[3]; ip, mouse brain, brain concentration converted assuming density of 1 g/mL
  AUC: 583 ng·h/mL
[3]; ip, mouse plasma
  AUC: 217 ng·h/mL
[4]; 5,000 mg/kg chow orally P18–P30
  survival of mice to P30: no effect
[4]; 5,000 mg/kg chow orally from P18, 48 h recording P23-24, n = 17–19
  spontaneous seizure (GTCS) frequency vs control mice: did not decrease
[4]; SB2193-treated vs untreated chow, P18 to P30, n = 14
  bodyweight change: no effect of treatment
